Tests used:
Melanocortin receptor 4 [1] = molecular target: T1, Melanocortin receptor 4 (Homo sapiens, UniProt P32245); test: Binding affinity to MC4R by membrane filtration assay
Melanocortin receptor 4 [2] = molecular target: T1, Melanocortin receptor 4; test: Antagonist activity against MC4R by cAMP functional assay
[3] = molecular target: Voltage-gated inwardly rectifying potassium channel KCNH2 (Homo sapiens, UniProt Q12809); test: Binding affinity to hERG
[4] = Oral bioavailability in rat; format: ADME, organism-based; details: in vivo
[5] = Plasma half life in iv dosed rat; format: ADME, organism-based

T1 sequence (P32245 whole entry): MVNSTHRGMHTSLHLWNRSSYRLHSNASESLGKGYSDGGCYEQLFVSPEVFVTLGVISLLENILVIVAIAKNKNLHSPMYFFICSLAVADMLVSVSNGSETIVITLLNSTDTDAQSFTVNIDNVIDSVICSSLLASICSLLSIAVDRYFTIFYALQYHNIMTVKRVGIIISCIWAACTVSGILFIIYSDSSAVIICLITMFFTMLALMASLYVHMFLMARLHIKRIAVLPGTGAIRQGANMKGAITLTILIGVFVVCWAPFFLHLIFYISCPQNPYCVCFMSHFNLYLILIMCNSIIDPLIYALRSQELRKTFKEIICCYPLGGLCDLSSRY
Chain of Voltage-gated inwardly rectifying potassium channel KCNH2 (Q12809 whole entry): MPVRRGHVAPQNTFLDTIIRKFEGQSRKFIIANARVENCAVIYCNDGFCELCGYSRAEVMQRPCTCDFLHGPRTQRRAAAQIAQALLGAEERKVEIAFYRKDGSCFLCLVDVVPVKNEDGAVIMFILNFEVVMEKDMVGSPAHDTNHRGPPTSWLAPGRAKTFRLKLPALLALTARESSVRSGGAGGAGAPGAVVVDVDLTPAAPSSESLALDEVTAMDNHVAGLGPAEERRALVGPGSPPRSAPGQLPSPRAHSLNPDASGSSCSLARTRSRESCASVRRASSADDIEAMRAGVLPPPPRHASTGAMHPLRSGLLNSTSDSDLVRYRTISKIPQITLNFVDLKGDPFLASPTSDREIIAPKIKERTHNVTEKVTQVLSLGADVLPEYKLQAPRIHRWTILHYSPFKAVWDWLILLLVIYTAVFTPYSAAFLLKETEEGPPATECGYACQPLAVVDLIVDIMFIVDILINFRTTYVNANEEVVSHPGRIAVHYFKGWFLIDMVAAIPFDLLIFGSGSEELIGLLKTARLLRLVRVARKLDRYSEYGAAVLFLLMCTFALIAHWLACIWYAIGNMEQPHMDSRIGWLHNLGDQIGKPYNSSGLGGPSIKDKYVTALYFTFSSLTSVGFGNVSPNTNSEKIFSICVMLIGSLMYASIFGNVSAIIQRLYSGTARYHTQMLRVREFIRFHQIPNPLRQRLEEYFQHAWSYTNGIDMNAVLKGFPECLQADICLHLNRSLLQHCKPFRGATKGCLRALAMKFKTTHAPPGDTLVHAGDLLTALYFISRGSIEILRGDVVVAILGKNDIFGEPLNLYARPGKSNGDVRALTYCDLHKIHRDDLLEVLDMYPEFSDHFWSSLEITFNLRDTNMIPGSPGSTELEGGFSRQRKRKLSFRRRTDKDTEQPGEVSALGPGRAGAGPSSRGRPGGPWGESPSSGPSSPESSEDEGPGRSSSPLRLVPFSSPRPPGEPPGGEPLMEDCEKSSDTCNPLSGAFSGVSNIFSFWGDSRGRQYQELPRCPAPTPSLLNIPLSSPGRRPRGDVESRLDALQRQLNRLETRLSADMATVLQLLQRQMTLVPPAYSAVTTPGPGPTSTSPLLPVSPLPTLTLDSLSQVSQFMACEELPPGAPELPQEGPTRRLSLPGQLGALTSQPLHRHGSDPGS

Ki (Melanocortin receptor 4 [1]) [nM]	IC50 (Melanocortin receptor 4 [2]) [nM]	bioavailability [4] [%]	half-life [5] [h]	SMILES	Ki [3] [nM]
920				CCCCN=C(N)NC(=O)c1cccc(F)c1CCc1cc(Br)ccc1OC	
21	390			COc1ccc(Br)cc1CCc1c(F)cccc1C(=O)/N=C(\N)NCCCCN1CCC2CCCCC2C1 (stereo not given)	
80	5700			COc1ccc(Br)cc1CCc1c(F)cccc1C(=O)/N=C(\N)NCCCNC1CCCCC1	
26000	> 33000			CCN(CC)CCCC(C)N=C(N)NC(=O)c1cccc(F)c1CCc1ccccc1Cl (stereo not given)	
5.1	180			COc1ccc(Br)cc1CCc1c(F)cccc1C(=O)/N=C(\N)NCCCCN(C)Cc1ccccc1	
900	530			CCN(CC)CCCC(C)N=C(N)NC(=O)c1cccc(F)c1OCc1cc(Br)ccc1OC (stereo not given)	
89	1500			CCN(CC)CCCC(C)/N=C(/N)NC(=O)c1cccc(F)c1CCc1cccc2ccccc12 (stereo not given)	
700	2580			COc1ccc(Br)cc1CCc1c(Cl)cccc1C(=O)N=C(N)N	
2600				COc1ccc(Br)cc1CCc1c(F)cccc1C(=O)NC(N)=NCCC1CCCCC1	
14	170			CCN(CC)CCCC(C)N=C(N)NC(=O)c1cccc(F)c1CCc1cc(OC)cc(OC)c1 (stereo not given)	
64	670			COc1ccc(Br)cc1CCc1c(F)cccc1C(=O)NC(N)=NCCCN1CCN(C)CC1	
2500	17000			CCN(CC)CCCC(C)/N=C(\NC(=O)c1cccc(F)c1CCc1cc(Br)ccc1OC)NC(C)C (stereo not given)	
110	660			CCN(CC)CCCC(C)N=C(N)NC(=O)c1cccc(F)c1CCc1cc(Br)ccc1Cl (stereo not given)	
770	8500			COc1ccc(Br)cc1CCc1c(F)cccc1C(=O)/N=C(\N)NCC(C)C	
26	650			COc1ccc(Br)cc1CCc1c(F)cccc1C(=O)/N=C(\N)NCCCCN1CCc2ccccc2C1	
0.58	70			COc1ccc(Br)cc1CCc1c(F)cccc1C(=O)/N=C(\N)NCCCCN1CCCCC1	
2.8	97			CCN1CCC(C/N=C(/N)NC(=O)c2cccc(F)c2CCc2cc(Br)ccc2OC)CC1	
190	4500			COc1ccc(Br)cc1CCc1c(F)cccc1C(=O)/N=C(\N)NCCN1CCCC1	
				COc1ccc(Br)cc1CCc1c(Cl)cccc1C1=NCCN1	840
3.2	330	6.3	31	COc1ccc(Br)cc1CCc1c(F)cccc1C(=O)/N=C(\N)NCCCN1CCCCC1	
6300				CCN(CC)CCCC(C)/N=C(/NC)NC(=O)c1cccc(F)c1CCc1cc(Br)ccc1OC (stereo not given)	
		4.6	1	COc1ccc(Br)cc1CCc1c(F)cccc1C1=NCCN1	
11	260			CCN(CC)CCCC(C)N=C(N)NC(=O)c1ccsc1CCc1cc(Br)ccc1OC (stereo not given)	
13	31			COc1ccc(Br)cc1CCc1c(F)cccc1C(=O)NC(N)=NCC1CCNCC1	
0.83	260			CCN(CC)CCCC(C)N=C(N)NC(=O)c1cccc(Cl)c1CCc1cc(Br)ccc1OC (stereo not given)	
690	1800			CCN(CC)CCCC(C)N=C(N)NC(=O)c1cccc(F)c1CCc1ccc2ccccc2c1 (stereo not given)	
4.3	130			CCN(CC)CCCC(C)/N=C(/N)NC(=O)c1cccc(F)c1CCc1cc(Br)ccc1OC (stereo not given)	
57	1200			COc1ccc(Br)cc1CCc1c(F)cccc1C(=O)/N=C(\N)NCCCCN(C)Cc1cccc2ccccc12	
4100				CCN(CC)CCCC(C)/N=C(\NC(=O)c1cccc(F)c1CCc1cc(Br)ccc1OC)Nc1ccccc1 (stereo not given)	
